In patent publication US8334316B2, “Substituted organosulfur compounds and methods of using thereof” (ACEA Biosciences, Inc., priority 2004, dated 2012):
Each block holds one molecule with its values, some of them ahead of it.

Tests used:
[1] = tested on: A431 cells (human epidermoid cancer cells); assay: RT-CES system cell proliferation, A431; type: cell-based; conditions: FIG. 6B
Method: A431 cells (human epidermoid cancer cells) were seeded into wells of microtiter plate devices (electronic plates, i.e., the plates comprise microelectrode sensor arrays in the wells of the plate) with an initial seeding density of 10,000 cells per well and were pre-incubated in incubator under standard cell culture conditions for about 22.3 hrs. Various concentrations of DBTS and 5-fluorouracil solutions were added into wells following the incubation period. The cell status was monitored prior to and after the compound addition using RT-CES system.

HT1080 cells = assay: Inhibition of cancer cell proliferation, IC50 of ACEA100129 (RT-CES or MTT, not specified), HT1080; type: cell-based; conditions: Homo sapiens, HT-1080
Method: (§1) The anticancer potency of DBTS and its derivatives were tested in 8 different types of human cancer cell lines using the RT-CES system and MTT assay. The 8 cancer cell lines were HT1080 (the human fibrosarcoma cell line), H460 (human non small cell lung cancer cell line), OVCAR4 (the human ovarian cancer cell line), MCF7 (human breast cancer cell line) MDA-MB231 (M231, the human breast cancer cell line) A2780 (the human […] cancer cell line) Jurkat (the human T cell leukemia cell line). The test DBTS derivatives include ACEA100107, ACEA100108, ACEA100109, ACEA100111, ACEA100115, ACEA100116, ACEA100117, ACEA100118, ACEA100119, and ACEA100120.
(§2) For the assay performed on the RT-CES system, the cells were seeded into the 16× or 96× microtiter plate devices (electronic plates, i.e., the plates comprise microelectrode sensor arrays in the wells of the plate) at the seeding density ranging from 5000 cells/well to 15,000 cells/well. The cells were incubated at 5% CO2 and 37° C. for overnight till the cell indices reached the growth phase where the cell index was between 0.8 and 1.2. […] The time-dependent IC50 values for each derivative were calculated based the dose responses of cell index value at different time points after compound treatment. […]

HELA cells = assay: Inhibition of cancer cell proliferation, IC50 of ACEA100129 (RT-CES or MTT, not specified), HELA; type: cell-based; conditions: Homo sapiens
Method: as §1, §2

MCF7 cells = assay: Inhibition of cancer cell proliferation, IC50 of ACEA100129 (RT-CES or MTT, not specified), MCF7; type: cell-based; conditions: Homo sapiens
Method: as §1, §2

mouse Lewis lung cancer [2] = assay: In vivo antitumor efficacy, mouse Lewis lung cancer model, Example 2 (DBTS, CTX, Taxol reference); conditions: 30 mg/kg/d ip x7 qd
mouse Lewis lung cancer [3] = assay: In vivo antitumor efficacy, mouse Lewis lung cancer model (subcutaneously transplanted), Example 1
Method: Test controls. For the negative control, two groups were set up: the solvent only control group and normal saline control group. […] In the normal saline group, each mouse was administered with 0.5 ml of normal saline, once per day and for 7 or 10 consecutive days. For the positive control group, the anticancer compound, cyclophosphamide (CTX) was administered intraperitoneally at 30 mg/kg, once per day and for 7 or 10 consecutive days.
In the mouse Lewis lung cancer model, 200 mg of DBTS was dissolved in 5 mL castor oil (in polyoxyethlated version). […] The intravenous injection speed was about 0.5 mL/0.5 min.
The dosages and administration of test compounds are within the knowledge of those commonly skilled in pharmacology. For example, the test compounds may be administered by intravenous injection with a test compound solution twice per day and for 7 consecutive days. Alternatively, the test compounds may be administered by intravenous injection with a test compound solution once per day and for 10 consecutive days.
0.2 mL of the tumor cell suspension (between 4 and 8 million tumor cells) was then transplanted back into an experimental mouse by subcutaneous injection. […] Each removed solid tumor was weighted, and the tumor inhibition rate in the DBTS-treated groups and in the CTX-treated group was calculated according to the formula: Tumor inhibition rate %=(average weight of tumor in the negative control group−average weight of tumor in the compound treated group)/average weight of tumor in the negative control group×100 (2)
For the mouse Lewis lung cancer model, the Lewis lung cancer cells were subcutaneously transplanted at approximately 5 million cells per mouse. After 24 hours of the transplantation, each mouse in the test group was administered intravenously with dibenzyl trisulfide at 50, 25, or 12.5 mg/kg per day and for 10 consecutive days. For the positive control group, each mouse was administered with CTX at […] intraperitoneally per day and for 10 consecutive days. For the negative control group, each mouse was administered intravenously either with normal saline, or with the solvent for dibenzyl trisulfide at the same concentration as that in the test group per day and for consecutive 10 days. For each group, 10 mice were used.

mouse sarcoma S180 = assay: In vivo antitumor efficacy, mouse sarcoma S180 model (subcutaneously transplanted), Example 1; conditions: 30 mg/kg/d ip x7 qd
[4] = tested on: P388 lymphocytic leukemia; assay: Murine P388 lymphocytic leukemia model (intraperitoneal transplantation), life span; type: in vivo, mouse; conditions: 2 mg/kg/d iv x7 qd
Method: Both male and female mice were used.
Preparation and Administration of Test Compounds.
To prepare cancer cells for the P388 murine lymphocytic leukemia model, ascites of a P388 leukemia-bearing mouse were removed under sterile condition. The ascites were diluted in normal saline (1:6 for ascites to normal saline) to prepare cell suspension. 0.2 mL of the cell suspension was then injected intraperitoneally. […] The life span of carrier mice was determined within 30 days. The life span ratio comparing to the negative control group of the carrier mice in each compound treatment group was calculated according to the formula: Life span ratio %=average life span for the compound treatment group/average life span for the negative control group×100% (4)

[5] = tested on: microtubules in COS cells; assay: Microtubule network in cultured COS cells (anti-tubulin immunofluorescence, confocal microscopy); type: cell-based
Method: Cell Culture and Immunocytochemistry. COS cells were grown in DMEM media supplemented with non-essential amino acids, 10% FBS, antibiotic-antimycotic (Gibco BRL) at 37° C. and 5.5% CO2. […] Cells were then rinsed once with warm PBS, fixed with cold methanol, rinsed again in PBS and blocked overnight at 4° C. in PBT (PBS, 1% BSA, 0.5% Triton X-100). All subsequent stains and washes were done in PBT at room temperature unless stated otherwise. Cells were stained with the anti-tubulin mouse antibody DM-1 at 1:1000 for 1 hour, washed four times for 15 minutes each and then treated with Cy-3 conjugated goat anti mouse antibody at 1:100 for 1 hour in the dark. Next, samples were washed four times for 15 minutes each in PBT in the dark followed by a final 15 minute wash in PBS in the dark. Samples were then viewed by laser scanning confocal microscopy.

[6] = tested on: A549 human lung cancer cells; assay: Apoptosis: Annexin V-Cy3 / 6-CFDA staining of A549 cells; type: cell-based; conditions: 10 nM, 24 hrs
Method: The cells were incubated with the drugs for 24 hours and then washed 2× with PBS and 3× with binding buffer (10 mM HEPES, pH 7.5, 140 mM NaCl, 2.5 mM CaCl2). […] The cells were gently washed 3× in 1× binding buffer, mounted, viewed under immunofluorescent microscope and imaged using an attached CCD camera. Note that live cells show staining only with 6-CFDA (green), while necrotic cells will stain only with Annexin V-Cy3 (red). Cells starting the apoptotic process will stain both with AnnexinV-Cy3 and 6-CFDA.

Structure (SMILES): O=c1[nH]cc(F)c(=O)[nH]1 [5-fluorouracil]
Concentration showing inhibitory ability against proliferation [1]: ≥ 12.5 µM

IC50 (HT1080 cells): 820 nM | IC50 (HELA cells): 420 nM | IC50 (MCF7 cells): 2300 nM
Structure (SMILES): Cc1ccc(CSSSCc2ccc(C)cc2)cc1 [ACEA100129, Di(p-methylbenzyl)trisulfide]

Structure (SMILES): O=P1(N(CCCl)CCCl)NCCCO1 (centres unmarked) [CTX, cyclophosphamide, reference compound]
Animal weight (g) beginning (mouse Lewis lung cancer [2]): 21.1 g | Animal weight (g) end (mouse Lewis lung cancer [2]): 22.3 g | Tumor weight (mouse Lewis lung cancer [2]): 0.258 ± 0.09 g | tumor inhibition rate % (mouse Lewis lung cancer [2]; vs normal saline control): 90.75% | Animal weight (g) beginning (mouse Lewis lung cancer [3]; 30 mg/kg/d ip): 19.1 g | Animal weight (g) end (mouse Lewis lung cancer [3]; 30 mg/kg/d ip): 20.2 g | Inhibition rate (%) (mouse Lewis lung cancer [3]; 30 mg/kg/d ip x7 qd, vs 5% solvent control): 85.83% | Inhibition rate (%) (mouse Lewis lung cancer [3]; 30 mg/kg/d ip x10 qd, vs normal saline control): 87.62% | Animal weight (g) beginning (mouse sarcoma S180): 19.6 g | Animal weight (g) end (mouse sarcoma S180): 20.3 g | Inhibition rate (%) (mouse sarcoma S180; vs 10% solvent control): 88.83% | Inhibition rate (%) (mouse sarcoma S180; vs normal saline control): 91.76%

Structure (SMILES): CO[C@@]12[C@H](COC(N)=O)C3=C(C(=O)C(C)=C(N)C3=O)N1C[C@@H]1N[C@@H]12 [MMC, mitomycin C, reference compound]
Beginning animal weight [4]: 20.6 g | animal No. beginning/end (survivors) [4]: 10/1 | Average life span X ± SD ([4]; observed within 30 days): 18.1 ± 0.15 | Life span ratio % ([4]; vs solvent control): 186.59%

Structure (SMILES): CC[C@]1(O)C[C@@H]2CN(CCc3c([nH]c4ccccc34)[C@@](C(=O)OC)(c3cc4c(cc3OC)N(C)[C@H]3[C@@](O)(C(=O)OC)[C@H](OC(C)=O)[C@]5(CC)C=CCN6CC[C@]43[C@@H]65)C2)C1 [vinblastine, reference compound]
Microtubule network appearance ([5]; 4 hours exposure): the microtubule network begins to fall apart and the microtubules become much shorter | Microtubule network appearance ([5]; 24 hours exposure, increasing dosage): major cell abnormalities are widespread in the microtubule network | Annexin V staining (apoptosis) [6]: strong staining of Annexin V
